According to patent US6911416B2, “Substituted N-benzoyl-n′(tetrazolylphenyl)-ureas and their use as pest control agents” (priority 2000, dated 2005):

Tests used:
[1] = logP (pH2) determination by HPLC, EEC directive 79/831 Annex V. A8; assay type: physicochemical; conditions: for chromatographic logP / logP (pH2): pH2; for chromatographic logP: HPLC gradient acetonitrile/0.1% aqueous phosphoric acid, values in preparation examples, read-out: log P(pH2)
[2] = test system: Heliothis virescens; test: Heliothis virescens test (dipped soya shoots); assay type: in vivo; conditions: active compound concentration 0.1%, after 6 days, soya shoots (Glycine max)
Experimental: (§1) To produce a suitable active compound preparation, 1 part by weight of active compound is mixed with the stated amounts of solvent and emulsifier, and the concentrate is diluted with emulsifier-containing water to the desired concentration.
Soya shoots (Glycine max) are treated by dipping into the active compound preparation of the desired concentration and are populated with Heliothis virescens while the leaves are still moist.
(§2) After the desired period, the destruction is determined in %. 100% means that all the caterpillars have been killed; 0% means that none of the caterpillars have been killed.

[3] = test system: mustard beetle (Phaedon cochleariae) larvae; test: Phaedon larvae test (dipped cabbage leaves); assay type: in vivo; conditions: active compound concentration 0.1%, after 7 days, cabbage leaves (Brassica oleracea)
Experimental: as §1
Cabbage leaves (Brassica oleracea) are treated by dipping into the active compound preparation of the desired concentration and are populated with mustard beetle (Phaedon cochleariae) larvae while the leaves are still moist.
After the desired period, the destruction is determined in %. 100% means that all the beetle have been killed; 0% means that none of the beetle larvae have been killed.

[4] = test system: diamond-back moth (Plutella xylostella) caterpillars; test: Plutella test (dipped cabbage leaves); assay type: in vivo; conditions: active compound concentration 0.1%, after 6 days, cabbage leaves (Brassica oleracea)
Experimental: as §1
Cabbage leaves (Brassica oleracea) are treated by dipping into the active compound preparation of the desired concentration and are populated with diamond-back moth (Plutella xylostella) caterpillars while the leaves are still moist.
as §2

[5] = test system: fall armyworm (Spodoptera exigua) caterpillars; test: Spodoptera exigua test (dipped cabbage leaves); assay type: in vivo; conditions: active compound concentration 0.1%, after 6 days, cabbage leaves (Brassica oleracea)
Experimental: as §1
Cabbage leaves (Brassica oleracea) are treated by dipping into the active compound preparation of the desired concentration and are populated with fall armyworm (Spodoptera exigua) caterpillars while the leaves are still moist.
as §2

[6] = test system: fall armyworm (Spodoptera frugiperda) caterpillars; test: Spodoptera frugiperda test (dipped cabbage leaves); assay type: in vivo; conditions: active compound concentration 0.1%, after 7 days, cabbage leaves (Brassica oleracea)
Experimental: Spodoptera frugiperda Test
as §1
Cabbage leaves (Brassica oleracea) are treated by dipping into the active compound preparation of the desired concentration and are populated with fall armyworm (Spodoptera frugiperda) caterpillars while the leaves are still moist.
as §2

[7] = Table 1, compounds of formula (I), only decimal values are logP
[8] = Table 2, tetrazolylanilines of formula (III)

Row | Compound | logP (pH2) [1, 8] | also measured
1 | Cn1nnnc1-c1ccc(N)c(Cl)c1 [1-methyl-(3-chloro-4-aminophenyl)-tetrazole] | – | chromatographic logP ([1]; pH 2): 1.17
2 | Nc1ccc(-c2nn[nH]n2)cc1Cl [5-(3-chloro-4-aminophenyl)-tetrazole] | – | chromatographic logP ([1]; pH 2): 1
3 | O=C(NC(=O)c1c(F)cccc1F)Nc1ccc(-c2nn[nH]n2)cc1Cl [Example 1, N-(2,6-difluorobenzoyl)-N′-(2-chloro-4-tetrazol-5-yl-phenyl)-urea] | – | chromatographic logP ([1]; pH 2): 2.13
4 | O=C(NC(=O)c1c(F)cccc1F)Nc1ccc(-c2nnn(C3CCCCO3)n2)cc1Cl (centres unmarked) [Example 2, N-(2,6-difluorobenzoyl)-N′-[2-chloro-4-(2-tetrahydropyran-2-yl-tetrazol-5-yl)-phenyl]-urea] | – | chromatographic logP ([1]; pH 2): 3.72
5 | CC(C)(C)n1nnc(-c2ccc(NC(=O)NC(=O)c3c(F)cccc3F)c(Cl)c2)n1 [Example 4] | – | destruction [2]: 100%; destruction [3]: 100%; destruction [4]: 100%; destruction [5]: 100%; destruction [6]: 100%
6 | Cn1nnc(-c2ccc(NC(=O)NC(=O)c3c(F)cccc3F)c(Cl)c2)n1 [Example 5] | – | logP (pH2) [1, 7]: 2.88; destruction [6]: 100%
7 | O=C(NC(=O)c1c(F)cccc1F)Nc1ccc(Cl)cc1-c1nn[nH]n1 [Example 6] | – | logP (pH2) [1, 7]: 2.16
8 | O=C(NC(=O)c1c(F)cccc1F)Nc1cc(Cl)c(-c2nn[nH]n2)cc1Cl [Example 7] | – | logP (pH2) [1, 7]: 2.30
9 | CC(C)(C)n1nnc(-c2ccc(NC(=O)NC(=O)c3c(F)cccc3Cl)c(Cl)c2)n1 [Example 10] | – | destruction [3]: 100%; destruction [6]: 100%
10 | CC(C)(C)n1nnc(-c2cc(Cl)ccc2NC(=O)NC(=O)c2c(F)cccc2F)n1 [Example 11] | – | logP (pH2) [1, 7]: 4.20
11 | CCOCn1nnc(-c2ccc(NC(=O)NC(=O)c3c(F)cccc3F)c(Cl)c2)n1 [Example 14] | – | destruction [6]: 100%
12 | CCCn1nnc(-c2ccc(NC(=O)NC(=O)c3c(F)cccc3F)c(Cl)c2)n1 [Example 15] | – | destruction [6]: 100%
13 | CC(C)(C)n1nnc(-c2cc(Cl)c(NC(=O)NC(=O)c3c(F)cccc3F)cc2Cl)n1 [Example 16] | – | destruction [3]: 100%; destruction [6]: 100%
14 | O=C(NC(=O)c1c(F)cccc1F)Nc1ccc(-c2nnn(C(F)F)n2)cc1Cl [Example 18] | – | destruction [3]: 100%; destruction [6]: 100%
15 | O=C(NC(=O)c1c(F)cccc1F)Nc1ccc(-c2nnn(-c3ccccc3)n2)cc1Cl [Example 19] | – | logP (pH2) or m.p. (° C.) ([1]; pH 2): 4.63
16 | O=C(NC(=O)c1c(F)cccc1F)Nc1ccc(-c2nnnn2C(F)F)cc1Cl [Example 20] | – | destruction [3]: 100%; destruction [6]: 100%
17 | CC(C)(C)n1nnc(-c2ccc(NC(=O)NC(=O)c3c(F)cccc3F)cc2Cl)n1 [Example 35] | – | logP (pH2) [1, 7]: 3.68
18 | CC(C)(C)n1nnc(-c2cc(Cl)ccc2N)n1 [Example a, 5-(2-amino-5-chlorophenyl)-2-tert-butyl-tetrazole] | – | chromatographic logP ([1]; pH 2): 3.58
19 | Nc1ccc(-c2nnn(Cc3ccc(Br)cc3)n2)cc1Cl [Example b, 5-(3-chloro-4-aminophenyl)-2-(4-bromobenzyl)-tetrazole] | – | chromatographic logP ([1]; pH 2): 3.52
20 | Cc1cc(-c2nn[nH]n2)cc(Cl)c1N [III-5] | 1.20 | –
21 | Cn1nnc(-c2ccc(N)c(Cl)c2)n1 [III-6] | 1.70 | –
22 | Nc1ccc(Cl)cc1-c1nn[nH]n1 [III-7] | 1.50 | –
23 | Nc1cc(Cl)c(-c2nn[nH]n2)cc1Cl [III-8] | 1.16 | –
24 | Nc1ccc(-c2nn[nH]n2)c(Cl)c1 [III-9] | 1.53 | –
25 | COC(=O)Cn1nnc(-c2ccc(N)c(Cl)c2)n1 [III-10] | 1.92 | –

Row | Compound | logP (pH2) [1, 8] | also measured
26 | CCOCn1nnc(-c2ccc(N)c(Cl)c2)n1 [III-11] | 2.34 | –
27 | CCCn1nnc(-c2ccc(N)c(Cl)c2)n1 [III-12] | 2.52 | –
28 | Nc1ccc(-c2nnn(C(F)F)n2)cc1Cl [III-14] | 2.08 | –
29 | Nc1ccc(-c2nnn(-c3ccccc3)n2)cc1Cl [III-15] | 3.28 | –
30 | Nc1ccc(-c2nnnn2C(F)F)cc1Cl [III-16] | 1.92 | –
31 | CC(C)Cn1nnc(-c2ccc(N)c(Cl)c2)n1 [III-17] | 2.95 | –
32 | Nc1ccc(-c2nnn(CCC(F)=C(F)F)n2)cc1Cl [III-18] | 2.68 | –
33 | CC(C)(C)n1nnc(-c2cc(Cl)c(N)c(Cl)c2)n1 [III-19] | 3.81 | –
34 | CC(C)Cn1nnc(-c2cc(Cl)c(N)c(Cl)c2)n1 [III-20] | 3.78 | –
35 | CC(C)Cn1nnc(-c2cc(Cl)c(N)cc2Cl)n1 [III-21] | 3.15 | –
36 | CCCn1nnc(-c2cc(Cl)c(N)cc2Cl)n1 [III-22] | 2.75 | –
37 | CC(C)(C)n1nnc(-c2ccc(N)cc2)n1 [III-23] | 1.69 | –
38 | CC(=O)OCCn1nnc(-c2ccc(N)c(Cl)c2)n1 [III-24] | 1.92 | –
39 | Nc1c(Cl)cc(-c2nn[nH]n2)cc1Cl [III-25] | 1.40 | –
40 | CC(C)(C)n1nnc(-c2ccc(N)c(Cl)c2)n1 [III-26] | 2.94 | –
41 | Nc1cc(Cl)c(-c2nnn(C(F)F)n2)cc1Cl [III-28] | 2.69 | –
42 | Nc1cc(Cl)c(-c2nnnn2C(F)F)cc1Cl [III-29] | 2.36 | –
43 | CC(C)(C)n1nnc(-c2ccc(N)cc2Cl)n1 [III-31] | 2.42 | –
44 | CC(C)(C)n1nnc(-c2ccc(N)cc2F)n1 [III-32] | 2.14 | –
45 | Nc1ccc(-c2nnn(C(F)F)n2)cc1 [III-46] | 1.49 | –
46 | Nc1ccc(-c2nnnn2C(F)F)cc1 [III-47] | 1.24 | –
47 | Nc1ccc(-c2nnn(C(F)F)n2)c(Cl)c1 [III-48] | 2.09 | –
48 | Nc1ccc(-c2nnnn2C(F)F)c(Cl)c1 [III-49] | 1.81 | –
49 | Nc1ccc(-c2nnn(C(F)F)n2)c(F)c1 [III-50] | 1.84 | –
50 | N-(2,6-difluorobenzoyl)-N′-[2-chloro-4-(1-methyl-tetrazol-5-yl]-urea [Example 3] | – | log P(pH2) ([1]; pH 2): 2.31
